Earlier results, collected in publication PMC9474474, “Determination of pharmacokinetics and tissue distribution of a novel lutetium-labeled PSMA-targeted ligand, ^177Lu-DOTA-PSMA-GUL, in rats by using LC–MS/MS” (Scientific Reports, 2022).

Set-up: method as in PMID 26985056
Details: cited from earlier work

In the case of O=C([O-])CN1CCN(CC(=O)[O-])CCN(CC(=O)NCC2CCC(C(=O)N[C@@H](Cc3ccc4ccccc4c3)C(=O)NCCCC[C@H](NC(=O)N[C@@H](CCC(=O)O)C(=O)O)C(=O)O)CC2)CCN(CC(=O)[O-])CC1.[177Lu+3] (some centres unmarked) [^177Lu-PSMA-617], the elimination half-life (humans, radioactivity study) is given as 90 h and the eliminated by urine (patients with PSMA-positive tumor phenotype) is given as “approximately 50%”.
